± gives the expanded uncertainty stated by the source.
Assay: excess molar enthalpy (molar enthalpy of mixing); xn = mol fraction of the nth substance listed
Details: 298.15 K, 101.33 kPa, Liquid

CCCCCCCCCCCCC#N [dodecanecarbonitrile] + CSCS(C)=O
Details | excess molar enthalpy [kcal/mol]
x2 = 0.06513 | 0.0772 ± 0.00158
x2 = 0.0823 | 0.104 ± 0.00198
x2 = 0.1316 | 0.15 ± 0.00263
x2 = 0.2014 | 0.209 ± 0.00359
x2 = 0.265 | 0.248 ± 0.0043
x2 = 0.3508 | 0.282 ± 0.00478
x2 = 0.367 | 0.289 ± 0.00478
x2 = 0.4233 | 0.301 ± 0.00502
x2 = 0.5443 | 0.306 ± 0.00502
x2 = 0.6344 | 0.294 ± 0.00502
x2 = 0.7341 | 0.264 ± 0.00454
x2 = 0.7878 | 0.237 ± 0.00406
x2 = 0.8039 | 0.227 ± 0.00382
x2 = 0.9082 | 0.138 ± 0.00263
x2 = 0.9683 | 0.0588 ± 0.00129
x2 = 0.9847 | 0.0293 ± 0.000813

CCCCCCCC#N [octanenitrile] + C[S+](C)[O-]
Details | excess molar enthalpy [kcal/mol]
x2 = 0.02667 | 0.0195 ± 0.000669
x2 = 0.037 | 0.0293 ± 0.000813
x2 = 0.1176 | 0.0892 ± 0.00174
x2 = 0.18 | 0.134 ± 0.00239
x2 = 0.2399 | 0.169 ± 0.00311
x2 = 0.3293 | 0.213 ± 0.00359
x2 = 0.3877 | 0.233 ± 0.00406
x2 = 0.4654 | 0.251 ± 0.0043
x2 = 0.552 | 0.261 ± 0.0043
x2 = 0.6233 | 0.256 ± 0.0043
x2 = 0.7022 | 0.244 ± 0.00406
x2 = 0.8267 | 0.189 ± 0.00335
x2 = 0.8785 | 0.149 ± 0.00263
x2 = 0.9546 | 0.068 ± 0.00143
x2 = 0.9616 | 0.057 ± 0.00124
x2 = 0.992 | 0.0135 ± 0.000574

CCCCCCCCC#N [nonanenitrile] + CSCS(C)=O
Details | excess molar enthalpy [kcal/mol]
x2 = 0.01839 | 0.0199 ± 0.000669
x2 = 0.03954 | 0.0411 ± 0.001
x2 = 0.08357 | 0.0801 ± 0.0016
x2 = 0.1186 | 0.108 ± 0.00206
x2 = 0.175 | 0.149 ± 0.00263
x2 = 0.2257 | 0.178 ± 0.00311
x2 = 0.2686 | 0.199 ± 0.00335
x2 = 0.3721 | 0.232 ± 0.00406
x2 = 0.3812 | 0.234 ± 0.00406
x2 = 0.4654 | 0.25 ± 0.0043
x2 = 0.5564 | 0.253 ± 0.0043
x2 = 0.6409 | 0.241 ± 0.00406
x2 = 0.779 | 0.195 ± 0.00335
x2 = 0.8417 | 0.155 ± 0.00287
x2 = 0.8806 | 0.126 ± 0.00232
x2 = 0.9058 | 0.106 ± 0.00201
x2 = 0.9564 | 0.0531 ± 0.0012
x2 = 0.9784 | 0.0266 ± 0.000789

CCCCCCCCCCC#N [1-decylcyanide] + CSCS(C)=O
Details | excess molar enthalpy [kcal/mol]
x2 = 0.02536 | 0.029 ± 0.000813
x2 = 0.04055 | 0.0463 ± 0.0011
x2 = 0.04193 | 0.0496 ± 0.00115
x2 = 0.07582 | 0.0856 ± 0.0017
x2 = 0.07724 | 0.0867 ± 0.00172
x2 = 0.1217 | 0.127 ± 0.00234
x2 = 0.1402 | 0.142 ± 0.00263
x2 = 0.1596 | 0.159 ± 0.00287
x2 = 0.1889 | 0.181 ± 0.00311
x2 = 0.2628 | 0.223 ± 0.00382
x2 = 0.2767 | 0.231 ± 0.00406
x2 = 0.3234 | 0.252 ± 0.0043
x2 = 0.4218 | 0.278 ± 0.00478
x2 = 0.5052 | 0.286 ± 0.00478
x2 = 0.77 | 0.237 ± 0.00406
x2 = 0.8316 | 0.202 ± 0.00359
x2 = 0.8694 | 0.17 ± 0.00311
x2 = 0.9043 | 0.138 ± 0.00263
x2 = 0.9095 | 0.132 ± 0.00239
x2 = 0.9464 | 0.0864 ± 0.00172
x2 = 0.9933 | 0.0131 ± 0.000574

CCCCCCCCCCC#N [1-decylcyanide] + C[S+](C)[O-]
Details | excess molar enthalpy [kcal/mol]
x2 = 0.02797 | 0.0287 ± 0.000813
x2 = 0.05445 | 0.0548 ± 0.00122
x2 = 0.09234 | 0.0936 ± 0.00182
x2 = 0.1207 | 0.119 ± 0.00222
x2 = 0.1811 | 0.175 ± 0.00311
x2 = 0.1853 | 0.178 ± 0.00311
x2 = 0.2855 | 0.249 ± 0.0043
x2 = 0.3924 | 0.296 ± 0.00502
x2 = 0.5139 | 0.322 ± 0.00526
x2 = 0.5302 | 0.322 ± 0.00526
x2 = 0.6423 | 0.322 ± 0.00526
x2 = 0.7161 | 0.308 ± 0.00502
x2 = 0.8292 | 0.254 ± 0.0043
x2 = 0.8917 | 0.195 ± 0.00335
x2 = 0.9298 | 0.145 ± 0.00263
x2 = 0.9772 | 0.0547 ± 0.00122
x2 = 0.98 | 0.0491 ± 0.00112
x2 = 0.9927 | 0.0191 ± 0.000669

CCCCCC#N [hexanenitrile] + C[S+](C)[O-]
Details | excess molar enthalpy [kcal/mol]
x2 = 0.07452 | 0.0546 ± 0.00122
x2 = 0.09271 | 0.0665 ± 0.00141
x2 = 0.1474 | 0.1 ± 0.00191
x2 = 0.1952 | 0.125 ± 0.00232
x2 = 0.2583 | 0.154 ± 0.00287
x2 = 0.3135 | 0.174 ± 0.00311
x2 = 0.3528 | 0.185 ± 0.00335
x2 = 0.4343 | 0.201 ± 0.00359
x2 = 0.4908 | 0.207 ± 0.00359
x2 = 0.5806 | 0.205 ± 0.00359
x2 = 0.7154 | 0.181 ± 0.00311
x2 = 0.842 | 0.129 ± 0.00237
x2 = 0.8892 | 0.0984 ± 0.00189
x2 = 0.9559 | 0.0454 ± 0.00108
x2 = 0.9855 | 0.0149 ± 0.000598

CCCCCCCCCCCC#N [n-dodecanenitrile] + CSCS(C)=O
Details | excess molar enthalpy [kcal/mol]
x2 = 0.03008 | 0.0375 ± 0.000956
x2 = 0.03781 | 0.0476 ± 0.0011
x2 = 0.09203 | 0.107 ± 0.00203
x2 = 0.1008 | 0.114 ± 0.00213
x2 = 0.1789 | 0.178 ± 0.00311
x2 = 0.207 | 0.198 ± 0.00335
x2 = 0.2152 | 0.204 ± 0.00359
x2 = 0.3197 | 0.261 ± 0.0043
x2 = 0.3517 | 0.27 ± 0.00454
x2 = 0.5024 | 0.3 ± 0.00502
x2 = 0.5857 | 0.301 ± 0.00502
x2 = 0.7084 | 0.277 ± 0.00454
x2 = 0.8115 | 0.223 ± 0.00382
x2 = 0.8979 | 0.148 ± 0.00263
x2 = 0.9592 | 0.0667 ± 0.00141
x2 = 0.9865 | 0.0238 ± 0.000741

CCCCCCCC#N [octanenitrile] + CSCS(C)=O
Details | excess molar enthalpy [kcal/mol]
x2 = 0.02232 | 0.0208 ± 0.000693
x2 = 0.06732 | 0.064 ± 0.00136
x2 = 0.1083 | 0.0967 ± 0.00186
x2 = 0.16 | 0.133 ± 0.00239
x2 = 0.2232 | 0.17 ± 0.00311
x2 = 0.3476 | 0.216 ± 0.00382
x2 = 0.5207 | 0.237 ± 0.00406
x2 = 0.6218 | 0.228 ± 0.00382
x2 = 0.7086 | 0.206 ± 0.00359
x2 = 0.7769 | 0.177 ± 0.00311
x2 = 0.869 | 0.122 ± 0.00225
x2 = 0.9129 | 0.0878 ± 0.00172
x2 = 0.9266 | 0.0774 ± 0.00158
x2 = 0.9548 | 0.0497 ± 0.00115
x2 = 0.9879 | 0.0154 ± 0.000621

CCCCCCCCCC#N [1-decanenitrile] + C[S+](C)[O-]
Details | excess molar enthalpy [kcal/mol]
x2 = 0.03778 | 0.0338 ± 0.000884
x2 = 0.04533 | 0.0418 ± 0.00103
x2 = 0.07244 | 0.0646 ± 0.00136
x2 = 0.08356 | 0.0746 ± 0.00153
x2 = 0.1458 | 0.132 ± 0.00239
x2 = 0.1516 | 0.137 ± 0.00239
x2 = 0.1578 | 0.141 ± 0.00263
x2 = 0.2138 | 0.183 ± 0.00311
x2 = 0.232 | 0.195 ± 0.00335
x2 = 0.3492 | 0.256 ± 0.0043
x2 = 0.4404 | 0.285 ± 0.00478
x2 = 0.52 | 0.299 ± 0.00502
x2 = 0.5471 | 0.302 ± 0.00502
x2 = 0.5564 | 0.304 ± 0.00502
x2 = 0.6253 | 0.301 ± 0.00502
x2 = 0.7275 | 0.282 ± 0.00478
x2 = 0.7979 | 0.251 ± 0.0043
x2 = 0.9212 | 0.139 ± 0.00263
x2 = 0.962 | 0.0765 ± 0.00155
x2 = 0.9868 | 0.0295 ± 0.000837
